From US20180057465A1, “Inhibitors of Necroptosis” (Catalyst Therapeutics Pty Ltd, priority 2015, published 2018)
pIC50: −log10 of the molar value.

What was measured:
[1] = tested on: U937 human histiocytic leukemia cell line; assay: Assay 1: inhibition of TSQ induced necroptosis, 96 well plate format; type: cell-based; conditions: for IC50: U-937, comparison tables of the description, values as in Table 1 (assay 1), read-out: IC50 (nM) Necroptosis inhibition; for pIC50: U-937, Table 1, assay 1, hTNF-Fc 100 ng/ml, Compound A 500 nM, Q-VD-OPh 10 μM, 48 hours, PI staining, flow cytometry, read-out: Inhibition of TSQ-induced necroptosis (cell based assay) IC50
Description: For in vitro analysis, the necroptosis inhibition may be determined by assays used to measure TSQ-induced necroptosis, as described in the biological tests defined herein.
(§1) Assay 1: Screening Compounds for Inhibition of TSQ Induced Necroptosis, 96 Well Plate Format.
(§2) Cell Line ID: […] human histiocytic leukemia cell line.
(§3) Cell Concentration (cells/well): 35,000 per well in 120 μL of media, counted and plated immediately prior to addition of inhibitor and death stimuli. Final well volume of 150 μL after addition of compounds and death stimuli
(§4) Cell growth medium: HTRPMI (WEHI Media kitchen, contains L-Glutamine and penicillin, streptomycin)—supplemented with 7.4% v/v FCS (Gibco, Precision Plus. Lot #1221437)
(§5) Incubation time (hours): 48 hours following addition of compounds and death stimuli
(§6) Compound Concentrations—Log Titrations:
(§7) DMSO final concentration (% v/v): 1.2% in 10 μM well to 0.2% in the control well.
Compounds that are in the Death Stimulation Cocktail and Their Final Concentrations:
hTNF-Fc (100 ng/ml)—produced by standard procedures as shown in Bossen et al., J Biol Chem, 2006, 281(20), 13964-13971.
Compound A (500 nM)—Smac mimetic, Tetralogic
Q-VD-OPh (10 μM)—MP Biomedicals
(§8) Cells treated with PI staining (1 μg/ml) and analysed by flow cytometry

[2] = tested on: U937 human histiocytic leukemia cell line; assay: Off-target effect (cell based assay), reported with assay 1; conditions: for IC50: U-937, comparison tables of the description, values as in Table 1 (assay 1), read-out: IC50 (nM) Off-Target Effect; for pIC50: U-937, Table 1, assay 1, read-out: Off-target effect (cell based assay) IC50
Description: as §1, §2, §3, §4, §5, §6, §7, §8

| IC50 [2] [nM] | pIC50 [2] | Compound | IC50 [1] [nM] | pIC50 [1] |
| --- | --- | --- | --- | --- |
| – | 5.33 | Cc1ccc(Nc2nccc(N(C)c3ccc(NC(=O)Nc4ccc(OC(F)(F)F)cc4)cc3)n2)cc1CN(C)C [Compound 1, 1-(4-((2-((3-((dimethylamino)methyl)-4-methylphenyl)amino)pyrimidin-4-yl)(methyl)amino)phenyl)-3-(4-(trifluoromethoxy)phenyl)urea] | – | 7.28 |
| 2110 | 5.68 | CN(c1ccc(NC(=O)Nc2ccc(OC(F)(F)F)cc2)cc1)c1nc(Nc2cccc(S(N)(=O)=O)c2)ncc1Cl [Compound 2, 3-((5-Chloro-4-(methyl(4-(3-(4-(trifluoromethoxy)phenyl)ureido)phenyl)amino)pyrimidin-2-yl)amino) benzenesulfonamide] | 29.5 | 7.53 |
| 791 | – | CN(c1ccc(NC(=O)Nc2cc(C(F)(F)F)ccc2F)cc1)c1ccnc(Nc2cccc(S(N)(=O)=O)c2)n1 [Compound 3 from AU 2014903569, reference compound] | – | – |
| > 10000 | < 5.00 | CNC(=O)c1cc(Nc2nccc(N(C)c3ccc(NC(=O)Nc4ccc(OC(F)(F)F)cc4)cc3)n2)ccc1C [Compound 3, N-2-Dimethyl-5-((4-(methyl(4-(3-(4-(trifluoromethoxy)phenyl)ureido)phenyl)amino)pyrimidin-2-yl)amino)benzamide] | 93.1 | 7.03 |
| – | 5.13 | Cc1ccc(Nc2nccc(N(C)c3ccc(NC(=O)Nc4ccc(OC(F)(F)F)cc4)cc3)n2)cc1C(N)=O [Compound 4, 2-Methyl-5-((4-(methyl(4-(3-(4-(trifluoromethoxy)phenyl)ureido)phenyl)amino)pyrimidin-2-yl)amino) benzamide] | – | 6.81 |
| – | 5.51 | CN(c1ccc(NC(=O)Nc2ccc(OC(F)(F)F)cc2)cc1)c1nc(Nc2cccc(S(N)(=O)=O)c2)ncc1F [Compound 5, 3-((5-Fluoro-4-(methyl(4-(3-(4-(trifluoromethoxy)phenyl)ureido)phenyl)amino)pyrimidin-2-yl)amino) benzenesulfonamide] | – | 7.52 |
| 5070 | – | CN(c1ccc(NC(=O)Nc2ccc(OC(F)(F)F)cc2)cc1)c1nc(Nc2cccc(S(N)(=O)=O)c2)ncc1C(F)(F)F [Compound 6a, 3-((4-(Methyl(4-(3-(4-(trifluoromethoxy)phenyl)ureido)phenyl)amino)-5-(trifluoromethyl)pyrimidin-2-yl)amino)benzenesulfonamide] | > 10000 | – |
| – | < 5.00 | Cc1ccc(Nc2nccc(N(C)c3ccc(NC(=O)Nc4ccc(OC(F)(F)F)cc4)cc3)n2)cc1N1CCCC1=O [Compound 7] | – | 7.29 |
| > 10000 | < 5.00 | CN(c1ccc(NC(=O)Nc2ccc(OC(F)(F)F)cc2)cc1)c1ccnc(Nc2cccc(N3CCCC3=O)c2)n1 [Compound 8, 1-(4-(Methyl(2-((3-(2-oxopyrrolidin-1-yl)phenyl)amino)pyrimidin-4-yl)amino)phenyl)-3-(4-(trifluoromethoxy)phenyl)urea] | 75.4 | 7.12 |
| – | < 5.00 | COCCNC(=O)c1cc(Nc2nccc(N(C)c3ccc(NC(=O)Nc4ccc(OC(F)(F)F)cc4)cc3)n2)ccc1C [Compound 9, N-(2-Methoxyethyl)-2-methyl-5-((4-(methyl(4-(3-(4-(trifluoromethoxy)phenyl)ureido)phenyl)amino)pyrimidin-2-yl)amino)benzamide] | – | 7.01 |
| 506 | 6.30 | CN(c1ccc(NC(=O)Nc2cc(F)cc(C(F)(F)F)c2)cc1)c1ccnc(Nc2cccc(S(N)(=O)=O)c2)n1 [Compound 10, 3-((4-((4-(3-(3-fluoro-5-(trifluoromethyl)phenyl)ureido)phenyl)(methyl)amino)pyrimidin-2-yl)amino)benzenesulfonamide] | < 1 | > 9.00 |
| – | 5.87 | CN(c1ccc(NC(=O)Nc2ccc(OC(F)(F)F)cc2)cc1)c1ccnc(Nc2cccc(-c3nnn(C)n3)c2)n1 [Compound 11, 1-(4-(Methyl(2-((3-(2-methyl-2H-tetrazol-5-yl)phenyl)amino)pyrimidin-4-yl)amino)phenyl)-3-(4-(trifluoromethoxy)phenyl)urea] | – | 8.12 |
| > 10000 | < 5.00 | CNC(=O)c1cc(Nc2ncc(F)c(N(C)c3ccc(NC(=O)Nc4ccc(OC(F)(F)F)cc4)cc3)n2)ccc1C [Compound 12, 5-((5-Fluoro-4-(methyl(4-(3-(4-(trifluoromethoxy)phenyl)ureido)phenyl)amino)pyrimidin-2-yl)amino)-N,2-dimethylbenzamide] | 10.1 | 8.00 |
| – | 5.79 | CNC(=O)c1cc(Nc2nccc(N(C)c3ccc(NC(=O)Nc4ccc(Cl)c(C(F)(F)F)c4)cc3)n2)ccc1C [Compound 14, 5-((4-((4-(3-(4-Chloro-3-(trifluoromethyl)phenyl)ureido)phenyl)(methyl)amino)pyrimidin-2-yl)amino)-N,2-dimethylbenzamide] | – | 8.05 |
| – | 6.99 | CNC(=O)c1cc(Nc2ncc(F)c(N(C)c3ccc(NC(=O)Nc4cc(C(F)(F)F)ccc4F)cc3)n2)ccc1C [Compound 15, 5-(5-fluoro-4-((4-(3-(2-fluoro-5-(trifluoromethyl)phenyl)ureido)phenyl)(methyl)amino)pyrimidin-2-ylamino)-N,2-dimethylbenzamide] | – | > 9.00 |
| – | 5.91 | CNC(=O)c1cc(Nc2nccc(N(C)c3ccc(NC(=O)Nc4cc(F)cc(C(F)(F)F)c4)cc3)n2)ccc1C [Compound 16, 5-(4-((4-(3-(3-fluoro-5-(trifluoromethyl)phenyl)ureido)phenyl)(methyl)amino)-pyrimidin-2-ylamino)-N,2-dimethylbenzamide] | – | 7.97 |
| – | 5.25 | CNC(=O)c1cc(Nc2nccc(N(C)c3ccc(NC(=O)Nc4ccc(OC(F)(F)F)cc4)cc3)n2)ccc1N1CCOCC1 [Compound 17, N-methyl-5-((4-(methyl(4-(3-(4-(trifluoromethoxy)phenyl)ureido)phenyl)amino)pyrimidin-2-yl)amino)-2-morpholinobenzamide] | – | 7.42 |
| – | < 5.00 | Cc1ccc(Nc2nccc(N(C)c3ccc(NC(=O)Nc4ccc(OC(F)(F)F)cc4)cc3)n2)cc1CN1CCOCC1 [Compound 18, 1-(4-(methyl(2-((4-methyl-3-(morpholinomethyl)phenyl)amino)pyrimidin-4-yl)amino)phenyl)-3-(4-(trifluoromethoxy)phenyl)urea] | – | 6.29 |
| – | < 5.00 | CN(c1ccc(NC(=O)Nc2ccc(OC(F)(F)F)cc2)cc1)c1ccnc(Nc2cccc(O)c2)n1 [Compound 19, 1-(4-((2-(3-hydroxyphenylamino)pyrimidin-4-yl)(methyl)amino)phenyl)-3-(4-(trifluoromethoxy)phenyl)urea] | – | 5.94 |
| – | < 5.00 | COc1cccc(Nc2nccc(N(C)c3ccc(NC(=O)Nc4ccc(OC(F)(F)F)cc4)cc3)n2)c1 [Compound 20, 1-(4-((2-(3-methoxyphenylamino)pyrimidin-4-yl)(methyl)amino)phenyl)-3-(4-(trifluoromethoxy)phenyl)urea] | – | 6.30 |
| 3600 | – | Cc1ccc(Nc2nccc(N(C)c3ccc(NC(=O)Nc4ccc(OC(F)(F)F)cc4)cc3)n2)cc1S(N)(=O)=O [Compound 21 from AU 2014903569, reference compound] | 72.7 | – |
| – | < 5.00 | CN(c1ccc(NC(=O)Nc2ccc(OC(F)(F)F)cc2)cc1)c1ccnc(Nc2cccc(C#N)c2)n1 [Compound 21, 1-(4-((2-(3-cyanophenylamino)pyrimidin-4-yl)(methyl)amino)phenyl)-3-(4-(trifluoromethoxy)phenyl)urea] | – | 6.32 |
| – | < 5.00 | CN(c1ccc(NC(=O)Nc2ccc(OC(F)(F)F)cc2)cc1)c1ccnc(Nc2cccc(N)c2)n1 [Compound 22, 1-(4-((2-(3-aminophenylamino)pyrimidin-4-yl)(methyl)amino)phenyl)-3-(4-(trifluoromethoxy)phenyl)urea] | – | 6.37 |
| – | – | CNC(=O)c1cc(Nc2nccc(N(C)c3ccc(NC(=O)Nc4cc(F)cc(C(F)(F)F)c4)cc3)n2)ccc1N1CCN(C)CC1 [Compound 31] | – | 7.89 |
| – | – | CNC(=O)c1cc(Nc2nccc(N(C)c3ccc(NC(=O)Nc4cc(F)cc(C(F)(F)F)c4)cc3)n2)ccc1OCCN1CCCC1 [Compound 32, 5-((4-((4-(3-(3-fluoro-5-(trifluoromethyl)phenyl)ureido)phenyl)(methyl)amino)pyrimidin-2-yl)amino)-N-methyl-2-(2-(pyrrolidin-1-yl)ethoxy)benzamide] | – | 7.40 |

| Compound | IC50 [2] [nM] | pIC50 [2] | IC50 [1] [nM] | pIC50 [1] |
| --- | --- | --- | --- | --- |
| CN(c1ccc(NC(=O)Nc2ccc(OC(F)(F)F)cc2)cc1)c1ccnc(Nc2cccc(S(N)(=O)=O)c2)n1 [Compound 1 from AU 2014903569, reference compound] | 3570 | – | 67.9 | – |
